# Data taken from US8492561B2, “Azetidine derivatives as sphingosine 1-phosphate (S1P) receptor modulators” (Allergan, Inc., priority 2010, dated 2013).
# Biological target: T1, human S1P1 receptor (Homo sapiens, UniProt P21453)
# T1 construct: expressed in transfected cells; membranes from cells stably expressing the S1P1 receptor
# Assay: GTP γ35S binding assay for S1P1 activity
# Format: biochemical
# Settings: membranes of cells stably expressing the S1P1 receptor, agonist potency
# Experimental: Compounds were synthesized and tested for S1P1 activity using the GTP γ^35S binding assay. These compounds may be assessed for their ability to activate or block activation of the human S1P1 receptor in cells stably expressing the S1P1 receptor.
# GTP γ^35S binding was measured in the medium containing (mM) HEPES 25, pH 7.4, MgCl2 10, NaCl 100, dithiothreitol 0.5, digitonin 0.003%, 0.2 nM GTP γ^35S, and 5 μg membrane protein in a volume of 150 μl. Test compounds were included in the concentration range from 0.08 to 5,000 nM unless indicated otherwise. Membranes were incubated with 100 μM 5′-adenylylimmidodiphosphate for 30 min, and subsequently with 10 μM GDP for 10 min on ice. Drug solutions and membrane were mixed, and then reactions were initiated by adding GTP γ^35S and continued for 30 min at 25° C. Reaction mixtures were filtered over Whatman GF/B filters under vacuum, and washed three times with 3 mL of ice-cold buffer (HEPES 25, pH7.4, MgCl2 10 and NaCl 100). Filters were dried and mixed with scintillant, and counted for ^35S activity using a β-counter. Agonist-induced GTP γ^35S binding was obtained by subtracting that in the absence of agonist. Binding data were analyzed using a non-linear regression method. In case of antagonist assay, the reaction mixture contained 10 nM S1P in the presence of test antagonist at concentrations ranging from 0.08 to 5000 nM.
# T1 sequence (P21453 whole entry): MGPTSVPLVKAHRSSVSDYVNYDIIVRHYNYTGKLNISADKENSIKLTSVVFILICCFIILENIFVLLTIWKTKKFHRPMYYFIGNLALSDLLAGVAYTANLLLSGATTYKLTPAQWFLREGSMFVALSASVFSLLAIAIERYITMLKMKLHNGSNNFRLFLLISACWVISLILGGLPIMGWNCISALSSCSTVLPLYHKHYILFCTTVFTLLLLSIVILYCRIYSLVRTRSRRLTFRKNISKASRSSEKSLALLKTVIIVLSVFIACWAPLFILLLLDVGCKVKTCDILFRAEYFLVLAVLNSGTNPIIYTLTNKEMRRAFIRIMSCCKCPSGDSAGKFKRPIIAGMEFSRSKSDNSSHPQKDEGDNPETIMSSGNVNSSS
row,SMILES,EC50
1,"Cc1ccc(CC(C#Cc2ccc(CN3CC(C(=O)O)C3)cc2)c2cccc(Cl)c2)cc1C (stereo not shown) [Compound 1, 1-{4-[3-(3-chlorophenyl)-4-(3,4-dimethylphenyl)but-1-yn-1 yl]benzyl}azetidine-3-carboxylic acid]",16 nM
2,"Cc1ccc(CC(C#Cc2ccc(CN3CC(C(=O)O)C3)cc2C)c2cccc(Cl)c2)cc1C (stereo not shown) [Compound 2, 1-{4-[3-(3-Chloro-phenyl)-4-(3,4-dimethyl-phenyl)-but-1-ynyl]-3-methyl-benzyl}-azetidine-3-carboxylic acid]",607 nM
3,"COc1cccc(C(C#Cc2ccc(CN3CC(C(=O)O)C3)cc2)Cc2ccc(C)c(C)c2)c1 (stereo not shown) [Compound 3, 1-{4-[4-(3,4-dimethylphenyl)-3-(3-methoxyphenyl)but-1-yn-1-yl]benzyl}azetidine-3-carboxylic acid]",42.3 nM
4,"Cc1ccc(CC(C#Cc2ccc(CN3CC(C(=O)O)C3)cc2)c2ccc(Cl)cc2)cc1C (stereo not shown) [Compound 4, 1-{4-[3-(4-chlorophenyl)-4-(3,4-dimethylphenyl)but-1-yn-1-yl]benzyl}azetidine-3-carboxylic acid]",128 nM
5,"O=C(O)C1CN(Cc2ccc(C#CC(Cc3ccc(Cl)c(Cl)c3)c3cccc(F)c3)cc2)C1 (stereo not shown) [Compound 5, 1-{4-[4-(3,4-Dichloro-phenyl)-3-(3-fluoro-phenyl)-but-1-ynyl]-benzyl}-azetidine-3-carboxylic acid]",310 nM
6,"Cc1ccc(CC(/C=C/c2ccc(CN3CC(C(=O)O)C3)cc2)c2cccc(F)c2)cc1C (stereo not shown) [Compound 6, 1-{4-[(1E)-4-(3,4-dimethylphenyl)-3-(3-fluorophenyl)but-1-en-1-yl]benzyl}azetidine-3-carboxylic acid]",58.7 nM
7,"Cc1cccc(C(C#Cc2ccc(CN3CC(C(=O)O)C3)cc2)Cc2ccc(C)c(C)c2)c1 (stereo not shown) [Compound 7, 1-{4-[4-(3,4-dimethylphenyl)-3-(3-methylphenyl)but-1-yn-1-yl]benzyl}azetidine-3-carboxylic acid]",91.9 nM
